What all share (assay type): in vivo
Data set [1] can be described thus: Serum ALT, AST and LDH activities in HCV-infected chimpanzees. As to conditions: both chimpanzees, both stages; peaks 1 day or 3 days after administration, then returned to levels before administration. From the text: (§1) Chimpanzees are the only test animals that can be persistently infected with hepatitis C viruses. Thus, 2 chimpanzees were selected as test animals for this experiment from the chimpanzee-dedicated facility (Kumamoto Primates Park, Sanwa Kagaku Kenkyusho Colo., Ltd.) where chimpanzees including hepatitis C virus carriers have been artificially bred and propagated over a long period of time. This experiment was examined and approved by the Experiment Review Board in advance in terms of ethics and test contents, and pain inflicted on chimpanzees was eliminated as much as possible during the experiment. Two chimpanzees employed in the experiment are hereafter referred to as Animal No. C33 (the duration of persistent infection with HCV (1a): 22 years) and Animal No. C54 (the duration of persistent infection with HCV (1b): 20 years), respectively.
(§2) After an acclimation period of approximately 1 month, KRN7000 was intravenously administered two times to animals at the rate of 10 μg/kg at the interval of 28 days (day 0 and day 28). […] The total leukocyte count was measured using an automated blood cell counter Sysmex K4500 (Sysmex Corporation). The leukocyte percentage was determined by coating whole blood onto a fat-free slide glass, immobilizing it thereon, staining with Diff-Quick (International Reagents Corp.), and microscopically examining 200 leukocytes. Neutrophil and lymphocyte counts were calculated by multiplying the obtained values with the total leukocyte count. The NKT cell percentage in the T cells was determined by: staining the whole blood with an anti-human TCR Vα24 antibody (Beckman Coulter), KRN7000 (α-GalCer)-bound human CD1d tetramer, and an anti-human CD3 antibody (Becton Dickinson Japan) that are labeled with different fluorescent dyes; lysing the stained whole blood with the FACS Lysing Solution (Becton Dickinson Japan); immobilizing thereof; and then determining the NKT cell ratio using the FACSCalibur (Becton Dickinson Japan). […]

The test system of a further data set is leukocytes. The data set is described as follows: Total leukocyte, neutrophil and lymphocyte counts in blood of HCV-infected chimpanzees. As to conditions: 10 μg/kg i.v.
Excerpt: as §1, §2

Data set [2] can be described thus: Serum KRN7000 levels by LC-MS/MS after intravenous administration to HCV-infected chimpanzees. Particulars: for Concentration in blood (serum KRN7000 level): before administration; for concentration at 15 min / concentration at 6 h: chimpanzee, serum, iv, 10 μg/kg, read-out: Concentration in blood (serum KRN7000 level); for concentration at 15 min: 15 minutes later; for concentration at 6 h: 6 hours later.
Excerpt: as §1
After an acclimation period of approximately 1 month, KRN7000 was intravenously administered two times to animals at the rate of 10 μg/kg at the interval of 28 days (day 0 and day 28). In order to obtain samples for verifying the responses of chimpanzees to KRN7000 and efficacy of KRN7000 on chronic HCV infections, blood drawing was carried out before and after each administration. The total leukocyte count was measured using an automated blood cell counter Sysmex K4500 (Sysmex Corporation). The leukocyte percentage was determined by coating whole blood onto a fat-free slide glass, immobilizing it thereon, staining with Diff-Quick (International Reagents Corp.), and microscopically examining 200 leukocytes. Neutrophil and lymphocyte counts were calculated by multiplying the obtained values with the total leukocyte count. The NKT cell percentage in the T cells was determined by: staining the whole blood with an anti-human TCR Vα24 antibody (Beckman Coulter), KRN7000 (α-GalCer)-bound human CD1d tetramer, and an anti-human CD3 antibody (Becton Dickinson Japan) that are labeled with different fluorescent dyes; lysing the stained whole blood with the FACS Lysing Solution (Becton Dickinson Japan); immobilizing thereof; and then determining the NKT cell ratio using the FACSCalibur (Becton Dickinson Japan). Cells that had responded to all of the anti-human TCR Vα24 antibody, the tetramer, and the anti-human CD3 antibody were determined to be the NKT cells of the chimpanzees. The activities of alanine aminotransferase (ALT), aspartate aminotransferase (AST), and lactate dehydrogenase (LDH) in serums were assayed using an automatic analyzer. The serum HCV-RNA levels were assayed by RT-PCR using the AMPLICOR® GT HCV monitor (Roche Diagnostics) and branched DNA (bDNA) probe assay using the Quantiplex HCV-RNA 2 (Bayer Corporation). The serum KRN7000 levels were assayed by liquid chromatography and tandem mass spectrometry (LC-MS/MS).

The next data set relates to hepatitis C virus. The data set is described as follows: Serum HCV-RNA levels (RT-PCR, bDNA probe assay) in chimpanzees persistently infected with hepatitis C virus.
Excerpt: as §1, §2

A further data set deals with NKT cells. In words: NKT cell percentage in the T cells by FACS in HCV-infected chimpanzees.
Excerpt: as §1, with “Two chimpanzees employed in the experiment are hereafter referred to as Animal No. C33 (the duration of persistent infection with HCV (1a): 22 years) and Animal No. C54 (the duration of persistent infection with HCV (1b): 20 years), respectively.” left out
After an acclimation period of approximately 1 month, KRN7000 was intravenously administered two times to animals at the rate of 10 μg/kg at the interval of 28 days (day 0 and day 28). […] The total leukocyte count was measured using an automated blood cell counter Sysmex K4500 (Sysmex Corporation). The leukocyte percentage was determined by coating whole blood onto a fat-free slide glass, immobilizing it thereon, staining with Diff-Quick (International Reagents Corp.), and microscopically examining 200 leukocytes. Neutrophil and lymphocyte counts were calculated by multiplying the obtained values with the total leukocyte count. […]
(In general: Flow cytometry measures light scatter and fluorescence of single cells or particles in a stream.)

Where [3] appears, read: Animal C33, first administration (10 μg/kg i.v., day 0).
The mark [4] stands for this setting: Animal C33, second administration (10 μg/kg i.v., day 28).
The mark [5] stands for this setting: Animal C54, first administration (10 μg/kg i.v., day 0).
Setting [6] is: Animal C54, second administration (10 μg/kg i.v., day 28).

Read-outs that look alike come from different tables or passages of the source.

Turning to `CCCCCCCCCCCCCCCCCCCCCCCCCC(=O)N[C@@H](CO[C@H]1O[C@H](CO)[C@H](O)[C@H](O)[C@H]1O)[C@H](O)[C@H](O)CCCCCCCCCCCCCC` [KRN7000, (2S,3S,4R)-1-(α-D-galactopyranosyloxy)-2-hexacosanoylamino-3,4-octadecanediol], in data set [1], the “Serum ALT activity” value was “transiently and mildly elevated”; the “Serum AST activity” value was “transiently and mildly elevated”; the “Serum LDH activity” value is “transiently and mildly elevated”. In the data set on leukocytes (6 hours after the administration, some exceptions), the Lymphocyte count result is reported as “decreased”. Further, in the data set with leukocytes (both chimpanzees, both stages of administration, 6 hours later), the Neutrophil count entry is “increased”. In addition, the Total leukocyte count result in the data set on leukocytes (in many cases, after administration) was “transiently increased”. In addition, in data set [2] (setting [3]), the “Concentration in blood (serum KRN7000 level)” value (shortened to “Concentration in blood”) is less than 10 ng/mL, the concentration at 15 min turned out to be 89 ng/mL and the concentration at 6 h turned out to be 38 ng/mL. Further, in data set [2] (setting [4]), the “Concentration in blood” value was less than 10 ng/mL, the concentration at 15 min was determined as 97 ng/mL and the concentration at 6 h worked out at 58 ng/mL. In data set [2] (setting [5]), the “Concentration in blood” value was less than 10 ng/mL, the concentration at 15 min came to 129 ng/mL and the concentration at 6 h came to 42 ng/mL. In data set [2] (setting [6]), the “Concentration in blood” value is less than 10 ng/mL, the concentration at 15 min was 141 ng/mL and the concentration at 6 h came out at 77 ng/mL. The “Time after administration at which maximum serum levels of KRN7000 were detected” value in data set [2] (both chimpanzees, both stages, 10 μg/kg i.v.) worked out at 15 min. In addition, the “Effect on chimpanzees infected with chronic HCV (overall conclusion)” value in the data set with hepatitis C virus (10 μg/kg i.v. two times at interval of 28 days) is given as “anti-HCV effects”. In addition, the “HCV-RNA levels, second administration (day 28) compared with initial administration (day 0)” value in the data set with hepatitis C virus (10 μg/kg i.v., day 0 and day 28) is reported as “continuously decreased”. The “Serum HCV-RNA levels” value in the data set with hepatitis C virus (both chimpanzees (HCV 1a, 1b), 1 day or 3 days after administration, both stages, 10 μg/kg i.v., RT-PCR or bDNA) is listed as “apparent decreases”. Besides, the “NKT cells, course after disappearance” value in the data set on NKT cells (Test Animal No. C54, after the administration) is listed as “gradually showed a tendency to recover”. For the same molecule, in the data set with NKT cells (day following both administrations, both chimpanzees, 10 μg/kg i.v.), the “NKT cells (ratio of NKT cell count to T cell count)” value is reported as “not detected”.

Source of the values: patent publication US20050159365A1, “Hepatits c virus inhibitor comprising alpha-glycosylceramide as the active ingredient” (Kirin Beer Kabushiki Kaisha, priority 2002, published 2005).
